These are literature values, as cited in US20050009776A1, “Method of treating atrial fibrillation or atrial flutter” (Aderis Pharmaceuticals, Inc., priority 2003, published 2005).

For the data set the following is noted: cited from earlier work.

Turning to `Nc1ncnc2c1ncn2[C@@H]1O[C@H](CO)[C@@H](O)[C@H]1O` [adenosine], the half-life is 10 s.

What is called half-life is the time in which the quantity being followed falls by half.
